Laboratory results: patent US10301355B2, “Method of using pharmaceutical compositions comprising selective peptide-based agonists of melanocortin 1 receptor” (University of Cincinnati, priority 2012, dated 2019)
“Also recorded” adds a separate entry of the source. Blank lines part the entries; values can stand above or below the molecule they belong to.

Legend:
Type in all cases: cell-based
[1] = target: T1, MC1R (Homo sapiens, UniProt Q01726); assay: Stimulation of cAMP formation in cultured human melanocytes; design: endogenous in cells; host or cells: cultured human melanocytes; conditions: for cAMP compared to 10 nM αMSH: cultured human melanocytes; for potency in stimulating cAMP formation, comparison: human melanocytes, 45 minutes of treatment
Protocol: Peptides were tested on cultured human melanocytes for their capacity to activate MC1R, as measured by stimulating cAMP formation. After 45 minutes of treatment with different concentrations of peptides, cAMP levels were measured using a I^125-labeled radioimmunoassay kit.
(§1) Peptides were tested as described in Example 4 above on cultured human melanocytes for their capacity to activate MC1R, as measured by stimulating cAMP formation, and for their capacity for stimulating tyrosinase activity, the rate-limiting enzyme for melanin synthesis. The tested peptides were synthesized according to the formula: Ar(CH2)mX^1—X^2—CO—X^3—X^4—X^5-(Trp)n-NX^6R wherein X^1 and X^2 are absent, X^3 is His, X^5 is Arg, and X^6 is H. X^4 amino acids were in the D-stereoisomer form, unless otherwise noted.

[2] = test system: tyrosinase; assay: Stimulation of tyrosinase activity in cultured human melanocytes; conditions: for TA compared to 10 nM αMSH: tyrosinase activity, cultured human melanocytes
Protocol: Peptides were tested on cultured human melanocytes for their capacity for stimulating tyrosinase activity, the rate-limiting enzyme for melanin synthesis. Melanocytes were treated every other day, for a total of 6 days, with increasing concentrations of peptides. Medium containing H^3-tyrosine, the substrate for tyrosinase, was added to melanocytes 24 hours before the end of the 6-day treatment. Tyrosinase activity was measured by determining the amount of ^3H2O generated as […] is catalyzed by tyrosinase for melanin synthesis.
as §1

[3] = target: T2, hMC5R (Homo sapiens, UniProt P33032); assay: cAMP stimulation in heterologous cells expressing hMC5R
T2 construct: expressed in transfected cells
Protocol: (§2) Receptor selectivity of peptide agonists for hMC1R was determined by stimulation of cAMP in heterologous cells expressing different human melanocortin receptors (MC1R, MC3R, MC4R, and MC5R).

[4] = target: T1, MC1R; assay: cAMP stimulation in heterologous cells expressing hMC1R; design: expressed in transfected cells; conditions: for HMC1R % MAX. ACTIVITY: cAMP, heterologous cells
Protocol: as §2

[5] = target: T3, hMC3R (Homo sapiens, UniProt P41968); assay: cAMP stimulation in heterologous cells expressing hMC3R
T3 construct: expressed in transfected cells
Protocol: as §2

[6] = target: T4, hMC4R (Homo sapiens, UniProt P32245); assay: cAMP stimulation in heterologous cells expressing hMC4R
T4 construct: expressed in transfected cells
Protocol: as §2

[7] = test system: UV-irradiated human melanocytes; assay: Repair of UV-induced cyclobutane pyrimidine dimers (CPD)
Protocol: To investigate the effects of peptides on the repair of UV-induced DNA damage, levels of cyclobutane pyrimidine dimers (CPD), the major form of DNA photoproducts, were measured in UV-irradiated human melanocytes with or without peptide treatment. Melanocytes were pretreated with the peptides for 4 days prior to, and for 48 hours post UV exposure, harvested, immunostained by a specific antibody for CPD, and analyzed by flow cytometry.

[8] = test system: UV-irradiated human melanocytes; assay: Repair of UV-induced 8-oxodG; conditions: 24 hours after UV exposure
Protocol: To investigate the effects of peptides on repair of UV-induced DNA damage, levels of 8-oxodG, a major form of oxidative DNA damage, were measured in UV-irradiated human melanocytes with or without peptide treatment. […] Fluorescence intensity, which correlates with the amount of DNA damage, was quantified using ImagJ software.

[9] = human melanocytes, 6 days treatment

T4 sequence (P32245 whole entry): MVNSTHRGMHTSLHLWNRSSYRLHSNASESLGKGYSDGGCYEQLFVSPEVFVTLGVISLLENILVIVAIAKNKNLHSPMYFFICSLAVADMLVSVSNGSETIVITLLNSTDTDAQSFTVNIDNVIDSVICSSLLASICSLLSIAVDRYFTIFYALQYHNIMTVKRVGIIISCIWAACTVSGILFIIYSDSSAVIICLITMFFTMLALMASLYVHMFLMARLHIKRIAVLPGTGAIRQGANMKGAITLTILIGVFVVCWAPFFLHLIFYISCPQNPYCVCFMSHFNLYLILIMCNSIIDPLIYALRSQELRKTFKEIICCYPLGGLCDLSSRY
T3 sequence (P41968 whole entry): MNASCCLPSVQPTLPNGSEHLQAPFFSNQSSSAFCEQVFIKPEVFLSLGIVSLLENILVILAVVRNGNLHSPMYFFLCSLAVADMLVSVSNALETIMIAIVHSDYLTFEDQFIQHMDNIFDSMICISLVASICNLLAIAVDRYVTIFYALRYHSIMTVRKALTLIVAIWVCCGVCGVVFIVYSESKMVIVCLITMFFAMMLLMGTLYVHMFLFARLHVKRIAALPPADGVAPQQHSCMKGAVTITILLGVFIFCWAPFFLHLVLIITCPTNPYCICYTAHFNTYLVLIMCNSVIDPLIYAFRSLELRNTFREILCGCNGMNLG
T1 sequence (Q01726 whole entry): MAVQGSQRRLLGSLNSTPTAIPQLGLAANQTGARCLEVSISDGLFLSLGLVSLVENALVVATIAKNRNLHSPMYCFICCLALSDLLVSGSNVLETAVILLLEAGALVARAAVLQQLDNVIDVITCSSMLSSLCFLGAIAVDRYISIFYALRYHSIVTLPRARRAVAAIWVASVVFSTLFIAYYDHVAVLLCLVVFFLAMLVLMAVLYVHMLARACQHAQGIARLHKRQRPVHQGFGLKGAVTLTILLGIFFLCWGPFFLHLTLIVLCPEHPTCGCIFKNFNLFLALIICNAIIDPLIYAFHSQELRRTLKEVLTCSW
T2 sequence (P33032 whole entry): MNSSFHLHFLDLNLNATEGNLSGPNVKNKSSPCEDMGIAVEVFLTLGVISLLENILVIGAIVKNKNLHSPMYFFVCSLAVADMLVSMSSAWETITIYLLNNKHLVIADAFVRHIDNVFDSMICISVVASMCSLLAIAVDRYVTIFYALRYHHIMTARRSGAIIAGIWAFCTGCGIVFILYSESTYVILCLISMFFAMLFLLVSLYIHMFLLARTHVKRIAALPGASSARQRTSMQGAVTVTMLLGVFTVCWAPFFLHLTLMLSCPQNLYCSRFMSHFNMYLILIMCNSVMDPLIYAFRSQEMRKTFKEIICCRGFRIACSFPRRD

cAMP compared to 10 nM αMSH [1]: =; <; >
Molecule: Ph(CH2)3CO-His-(D-4-BrPhe)-Arg-Trp-NH2 [474P]

cAMP compared to 10 nM αMSH [1]: <<
Molecule: Ph(CH2)3CO-His-(D-4-tBuPhe)-Arg-NHEt [494P]

cAMP compared to 10 nM αMSH [1]: >
Molecule: 4-BrC6H4CH2CO-His-(D-4-FPhe)-Arg-Trp-NH2 [208P]

cAMP compared to 10 nM αMSH [1]: ≤
Molecule: Ph(CH2)3CO-His-(D-2-Nal)-Arg-Trp-NH2 [468P]

TA compared to 10 nM αMSH [2]: <<<
Molecule: Ph(CH2)3CO-His-(D-2-Nal)-Arg-NHMe [517P]

cAMP compared to 10 nM αMSH [1]: NR (NR = No Response/inactive at 10 nM)
Molecule: Ph(CH2)3CO-His-(D-1-Nal)-Arg-NHEt [491P]

cAMP compared to 10 nM αMSH [1]: >>
Molecule: 4-IC6H4CH2CO-His-(D-Phe)-Arg-Trp-NH2 [488P]

effect on tyrosinase activity, comparison [2, 9]: equipotent to LK-467 | cAMP compared to 10 nM αMSH [1]: >* | potency in stimulating cAMP formation, comparison [1]: equipotent to LK-467
Molecule: Ph(CH2)3CO-His-(D-Phe)-Arg-Trp-NHEt [LK-487]

TA compared to 10 nM αMSH [2]: NR (NR = No Response/inactive at 10 nM)
Molecule: Ph(CH2)3CO-His-(D-1-Nal)-Arg-NH2 [510P]

Molecule: melanotan II [MT-II, reference compound]
HMC5R % MAX. ACTIVITY ([3]; cAMP, heterologous cells): 100% | HMC1R % MAX. ACTIVITY [4]: 103%

cAMP compared to 10 nM αMSH [1]: NR (NR = No Response/inactive at 10 nM)
Molecule: 4-FC6H4CH2CO-His-(D-1-Nal)-Arg-NHEt [495P]

cAMP compared to 10 nM αMSH [1]: <<
Molecule: Ph(CH2)3CO-His-(D-4-Bip)-Arg-NHEt [493P]

HMC3R % MAX. ACTIVITY ([5]; cAMP, heterologous cells): 7% | potency at hMC4R compared with LK-184 [6]: about ten times less potent | HMC4R % MAX. ACTIVITY ([6]; cAMP, heterologous cells): 39% | HMC5R % MAX. ACTIVITY ([3]; cAMP, heterologous cells): 34% | potency relative to a-MSH in activating MC1R and stimulating melanogenesis [2, 9]: at least 100 times | HMC1R % MAX. ACTIVITY [4]: 111% | cAMP compared to 10 nM αMSH [1]: > | potency in stimulating cAMP formation, comparison [1]: more potent than LK-184
Molecule: N=C(N)NCCC[C@H](NC(=O)[C@@H](Cc1cccc2ccccc12)NC(=O)[C@H](Cc1c[nH]cn1)NC(=O)CCCc1ccccc1)C(=O)N[C@@H](Cc1c[nH]c2ccccc12)C(N)=O [LK-467, Ph(CH2)3CO-His-(D-1-Nal)-Arg-Trp-NH2]
effect on tyrosinase activity, comparison [2, 9]: comparable effects in tyrosinase activity | reduction of CPD levels, comparison with LK-184 ([7]; 48 hours after UV exposure): as effective as LK-184 | CPD removal compared with 10 nM α-MSH ([7]; peptide at 1 nM, 48 hours post UV): same effect at 1 nM on CPD removal as 10 nM a-MSH; also recorded: same effect at 1 nM on CPD removal as 10 nM α-MSH | reduction of 8-oxodG levels, comparison with LK-184 [8]: as effective as LK-184

binding of MC3R [5]: do not bind | HMC3R EC50 ([5]; cAMP, heterologous cells): INACTIVE | binding of MC4R [6]: do not bind | HMC4R EC50 ([6]; cAMP, heterologous cells): INACTIVE | binding of MC5R [3]: do not bind | HMC5R EC50 ([3]; cAMP, heterologous cells): INACTIVE | concentration at which significant stimulation of tyrosinase activity begins [2, 9]: 1 nM | TA compared to 10 nM αMSH [2]: < | potency in activation of MC1R compared with MT-II [4]: about as potent as MT-II | HMC1R % MAX. ACTIVITY [4]: 88% | cAMP compared to 10 nM αMSH [1]: <
Molecule: N=C(N)NCCC[C@H](NC(=O)[C@@H](Cc1ccc(-c2ccccc2)cc1)NC(=O)[C@H](Cc1c[nH]cn1)NC(=O)CCCc1ccccc1)C(N)=O [LK-511, Ph(CH2)3CO-His-(D-4-Bip)-Arg-NH2]
potency in stimulating cAMP formation, comparison [1]: about ten times less potent than a-MSH; also recorded: about ten times less potent than α-MSH

cAMP compared to 10 nM αMSH [1]: NR (NR = No Response/inactive at 10 nM)
Molecule: 4-FC6H4CH2CO-His-(D-2-Nal)-Arg-NHEt [496P]
